Patent US8343961B2, “Substituted heterocyclic compounds” (ArQule, Inc., priority 2009, dated 2013)

Legend:
[1] = target: T1, Tec kinase (Homo sapiens, UniProt P42680); assay: Tec Kinase Activity Assay; type: biochemical; settings: read-out: Tec % INH, at 30 uM
T1 sequence (P42680 1-631): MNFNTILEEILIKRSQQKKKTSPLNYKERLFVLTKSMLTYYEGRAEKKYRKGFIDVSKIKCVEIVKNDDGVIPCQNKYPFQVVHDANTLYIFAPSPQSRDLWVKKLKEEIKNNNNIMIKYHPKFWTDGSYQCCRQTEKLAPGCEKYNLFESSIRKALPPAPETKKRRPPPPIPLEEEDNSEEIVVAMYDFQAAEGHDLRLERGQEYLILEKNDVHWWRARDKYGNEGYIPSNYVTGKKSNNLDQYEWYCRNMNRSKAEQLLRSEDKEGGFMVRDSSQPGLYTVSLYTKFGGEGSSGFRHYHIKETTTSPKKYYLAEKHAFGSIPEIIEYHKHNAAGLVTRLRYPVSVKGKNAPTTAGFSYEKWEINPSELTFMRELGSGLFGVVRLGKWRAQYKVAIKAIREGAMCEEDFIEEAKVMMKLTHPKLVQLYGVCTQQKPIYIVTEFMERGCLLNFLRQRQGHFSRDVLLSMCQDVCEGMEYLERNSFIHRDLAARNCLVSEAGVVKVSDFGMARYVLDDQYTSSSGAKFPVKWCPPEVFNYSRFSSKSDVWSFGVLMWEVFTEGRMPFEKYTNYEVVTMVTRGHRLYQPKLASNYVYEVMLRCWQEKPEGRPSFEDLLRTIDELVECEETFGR
Experimental: (§1) The disclosed compounds were assayed for their ability to inhibit the activity of Tec kinase. Nunc Maxisorb plates were coated with streptavidin by overnight incubation with 100 μL per well of 1 μg/mL Streptavidin in DPBS. Prior to the start of the experiment, the plates were washed with TBST (3×200 μL) and blocked for at least 1 hour by adding 150 μL of 5% BSA/TBST. The plates were washed with TBST (3×200 μL/well) and left dry immediately before the capture step.
The test articles and controls (Staurosporine and Sutent) were prepared using the following assay buffer @ 3× desired final concentration (50 mM Tris-HCl, 0.02 mg/mL BSA, 10 mM MgCl2, 0.1 mM Na3VO4, 1 mM EGTA, 75 μM ATP0.01% NP-40, 2 mM DTT in 10% glycerol/water). In a reaction plate were added rapidly 20 μL test article (or control) and 20 μL TEC 0.25 ng/4. The plate was incubated for 30 minutes. To the reaction plate was added 20 μL of Pyk-2.5 ng/μL. The plate was incubated at room temperature for two hours. From the reaction plate, 50 μL was transferred to the streptavidin coated plate. The capture plate was incubated at room temperature for 30 minutes then washed 6× with TBST. To the capture plate was added 100 μL/well of Cell Signaling anti-phospho tyrosine at a dilution of 1:3000 in 2% BSA/TBST. The plate was incubated for one hour at room temperature then washed 6× with TBST. To the capture plate was added 100 μL/well of Alkaline Phosphatase Tagged Goat anti Mouse Antibody at a dilution of 1:4000 in 2% BSA/TBST. The plate was incubated for one hour at room temperature then washed 6× with TBST. The fluorescent readout was initiated by the addition of 100 μL/well of Attophos reagent (6 mg/10 mL). The reading was done on the Perkin Elmer Envision system.

[2] = target: RET kinase (Homo sapiens, UniProt P07949); assay: RET Kinase Activity Assay; type: biochemical; settings: read-out: Ret, % INH, at 30 uM
Sequence of RET kinase (P07949 29-1114): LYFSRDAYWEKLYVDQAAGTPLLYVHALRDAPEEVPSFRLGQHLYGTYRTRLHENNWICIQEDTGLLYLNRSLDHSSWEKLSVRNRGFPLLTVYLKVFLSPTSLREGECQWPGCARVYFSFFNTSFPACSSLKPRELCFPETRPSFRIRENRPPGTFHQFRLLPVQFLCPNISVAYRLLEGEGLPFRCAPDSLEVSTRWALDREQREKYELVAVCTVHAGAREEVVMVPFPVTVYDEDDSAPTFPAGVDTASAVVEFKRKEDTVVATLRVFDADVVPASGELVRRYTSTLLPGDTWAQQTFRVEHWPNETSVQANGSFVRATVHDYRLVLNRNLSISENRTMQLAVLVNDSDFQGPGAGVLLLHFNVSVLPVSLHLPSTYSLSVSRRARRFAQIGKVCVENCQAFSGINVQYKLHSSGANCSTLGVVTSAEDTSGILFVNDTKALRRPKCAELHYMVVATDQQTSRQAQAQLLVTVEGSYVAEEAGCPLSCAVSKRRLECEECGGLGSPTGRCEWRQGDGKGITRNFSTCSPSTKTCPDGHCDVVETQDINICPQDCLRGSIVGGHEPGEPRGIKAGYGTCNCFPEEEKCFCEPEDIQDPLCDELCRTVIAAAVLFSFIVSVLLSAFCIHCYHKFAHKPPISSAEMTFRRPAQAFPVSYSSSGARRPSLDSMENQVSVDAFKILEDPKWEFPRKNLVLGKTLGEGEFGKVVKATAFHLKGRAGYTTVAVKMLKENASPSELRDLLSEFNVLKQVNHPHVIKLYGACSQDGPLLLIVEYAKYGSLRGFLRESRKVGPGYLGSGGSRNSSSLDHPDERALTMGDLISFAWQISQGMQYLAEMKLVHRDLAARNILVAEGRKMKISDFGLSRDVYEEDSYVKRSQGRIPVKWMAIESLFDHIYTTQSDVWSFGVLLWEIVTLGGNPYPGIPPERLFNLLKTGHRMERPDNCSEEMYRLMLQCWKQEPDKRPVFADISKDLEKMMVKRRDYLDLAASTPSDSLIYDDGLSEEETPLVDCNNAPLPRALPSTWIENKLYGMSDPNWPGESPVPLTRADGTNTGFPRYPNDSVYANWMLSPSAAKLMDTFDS
Experimental: as §1, with “RET” for “Tec”, “Maxwasorb” for “Maxisorb”, “[…])” for “μL/well)”
The test articles and controls (Staurosporine and Sutent) were prepared using the following assay buffer @ 3× desired final concentration (50 mM […], 0.02 mg/mL BSA, 10 mM MgCl2, 0.1 mM Na3VO4, 1 mM EGTA, 75 μM ATP0.01% NP-40, 2 mM DTT in 10% glycerol/water). In a reaction plate, were added rapidly 20 μL test article (or control) and 20 μL RET (0.25 ng/4 final concentration). The plate was incubated for 15 minutes. To the reaction plate was added 20 μL of Pyk-2 (0.25 ng/4 final concentration). The plate was incubated at room temperature for one hour.
From the reaction plate, 50 μL was transferred to the streptavidin coated plate. The capture plate was incubated at room temperature for 30 minutes then washed 6× with TBST. To the capture plate was added 100 μL/well of Cell Signaling anti-phospho tyrosine at a dilution of 1:3000 in 2% BSA/TBST. The plate was incubated for one hour at room temperature then washed 6× with TBST. To the capture plate was added 100 μL/well of Alkaline Phosphatase Tagged Goat anti Mouse Antibody at a dilution of 1:4000 in 2% BSA/TBST. The plate was incubated for one hour at room temperature then washed 6× with TBST. The fluorescent readout was initiated by the addition of 100 μL/well of Attophos reagent (6 mg/10 mL). The reading was done on the Perkin Elmer Envision system.

| inhibition at 30 µM [1] [%] | inhibition at 30 µM [2] [%] | Structure (SMILES) |
| --- | --- | --- |
| < 50 | < 50 | COc1cc2c(cc1OC)C(c1ccccc1Cl)N(c1nc(N)nc3[nH]cnc13)CC2 (stereo not shown) [Compound 48, 6-[1-(2-chlorophenyl)-6,7-dimethoxy-3,4-dihydroisoquinolin-2(1H)-yl]-9H-purin-2-amine] |
| < 50 | < 50 | COc1cc2c(cc1OC)C(c1cccc(C(F)(F)F)c1)N(c1nc(N)nc3[nH]cnc13)CC2 (stereo not shown) [Compound 50, 6-{6,7-dimethoxy-1-[3-(trifluoromethyl)phenyl]-3,4-dihydroisoquinolin-2(1H)-yl}-9H-purin-2-amine] |
